{
  "source": "patent US12275731B2",
  "about": "“Azaindole inhibitors of wild-type and mutant forms of LRRK2” (DANA-FARBER CANCER INSTITUTE, INC., priority 2018, dated 2025)",
  "assay_in_all_cases": "KinomeScan profiling",
  "type_in_all_cases": "binding",
  "key": {"BTK": {"target": "BTK (Homo sapiens, UniProt Q06187)", "sequence (Q06187 whole entry)": "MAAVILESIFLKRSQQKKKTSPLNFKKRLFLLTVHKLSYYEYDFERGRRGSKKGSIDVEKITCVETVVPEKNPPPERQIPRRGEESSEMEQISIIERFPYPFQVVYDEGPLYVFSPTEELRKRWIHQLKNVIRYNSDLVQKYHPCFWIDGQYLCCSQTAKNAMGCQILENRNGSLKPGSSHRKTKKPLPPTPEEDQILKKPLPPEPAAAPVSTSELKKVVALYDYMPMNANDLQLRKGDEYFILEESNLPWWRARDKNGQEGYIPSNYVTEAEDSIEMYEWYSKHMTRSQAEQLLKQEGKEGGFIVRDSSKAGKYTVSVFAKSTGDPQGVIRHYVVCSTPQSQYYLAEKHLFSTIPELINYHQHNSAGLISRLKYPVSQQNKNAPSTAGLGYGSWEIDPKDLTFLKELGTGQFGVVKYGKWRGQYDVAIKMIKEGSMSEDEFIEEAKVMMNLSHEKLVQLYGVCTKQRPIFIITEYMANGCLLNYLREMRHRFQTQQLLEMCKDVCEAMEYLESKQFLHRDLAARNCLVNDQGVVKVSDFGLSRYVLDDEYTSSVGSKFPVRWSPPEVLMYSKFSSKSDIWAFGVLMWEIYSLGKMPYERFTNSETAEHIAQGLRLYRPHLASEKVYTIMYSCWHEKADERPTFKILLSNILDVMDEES", "details": "read-out: % control", "description": "(§1) The kinase selectivity of inventive compounds 77, 96 and 101 was evaluated by KinomeScan®. KinomeScan® analysis was performed against a near comprehensive panel of 468 kinases. The control percentage (% control) for inventive compounds at 1 μM in DMSO was determined by Equation 1: % control=(inventive compound−positive control)/(negative control−positive control)×100%, Equation 1\n(§2) wherein the positive control is a compound with a % control value of 0% relative light units (RLU), and the negative control (i.e., DMSO) has % control value of 100% RLU. The enzyme selectivity in the present invention is defined as follows: inventive compounds are considered active for an enzyme when the observed % control is less than 35% (<35%)."}, "PCTK1": {"target": "PCTK1 (Homo sapiens, UniProt Q00536)", "sequence (Q00536 whole entry)": "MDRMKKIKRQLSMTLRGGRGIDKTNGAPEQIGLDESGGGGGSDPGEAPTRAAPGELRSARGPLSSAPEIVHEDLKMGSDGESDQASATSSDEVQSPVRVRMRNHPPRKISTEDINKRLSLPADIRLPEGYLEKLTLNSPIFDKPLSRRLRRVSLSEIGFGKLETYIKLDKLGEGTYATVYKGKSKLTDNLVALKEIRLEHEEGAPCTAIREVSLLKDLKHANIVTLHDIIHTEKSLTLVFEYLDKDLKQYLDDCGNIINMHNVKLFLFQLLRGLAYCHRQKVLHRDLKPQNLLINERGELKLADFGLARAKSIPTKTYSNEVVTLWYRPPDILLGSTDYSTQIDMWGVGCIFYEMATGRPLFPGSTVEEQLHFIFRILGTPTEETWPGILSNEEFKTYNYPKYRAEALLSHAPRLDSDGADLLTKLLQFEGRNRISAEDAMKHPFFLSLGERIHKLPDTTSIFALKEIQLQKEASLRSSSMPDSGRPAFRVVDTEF", "details": "PCTK1, 1 μM; read-out: % control", "description": "as §1, §2"}, "RET": {"target": "RET (Homo sapiens, UniProt P07949)", "sequence (P07949 29-1114)": "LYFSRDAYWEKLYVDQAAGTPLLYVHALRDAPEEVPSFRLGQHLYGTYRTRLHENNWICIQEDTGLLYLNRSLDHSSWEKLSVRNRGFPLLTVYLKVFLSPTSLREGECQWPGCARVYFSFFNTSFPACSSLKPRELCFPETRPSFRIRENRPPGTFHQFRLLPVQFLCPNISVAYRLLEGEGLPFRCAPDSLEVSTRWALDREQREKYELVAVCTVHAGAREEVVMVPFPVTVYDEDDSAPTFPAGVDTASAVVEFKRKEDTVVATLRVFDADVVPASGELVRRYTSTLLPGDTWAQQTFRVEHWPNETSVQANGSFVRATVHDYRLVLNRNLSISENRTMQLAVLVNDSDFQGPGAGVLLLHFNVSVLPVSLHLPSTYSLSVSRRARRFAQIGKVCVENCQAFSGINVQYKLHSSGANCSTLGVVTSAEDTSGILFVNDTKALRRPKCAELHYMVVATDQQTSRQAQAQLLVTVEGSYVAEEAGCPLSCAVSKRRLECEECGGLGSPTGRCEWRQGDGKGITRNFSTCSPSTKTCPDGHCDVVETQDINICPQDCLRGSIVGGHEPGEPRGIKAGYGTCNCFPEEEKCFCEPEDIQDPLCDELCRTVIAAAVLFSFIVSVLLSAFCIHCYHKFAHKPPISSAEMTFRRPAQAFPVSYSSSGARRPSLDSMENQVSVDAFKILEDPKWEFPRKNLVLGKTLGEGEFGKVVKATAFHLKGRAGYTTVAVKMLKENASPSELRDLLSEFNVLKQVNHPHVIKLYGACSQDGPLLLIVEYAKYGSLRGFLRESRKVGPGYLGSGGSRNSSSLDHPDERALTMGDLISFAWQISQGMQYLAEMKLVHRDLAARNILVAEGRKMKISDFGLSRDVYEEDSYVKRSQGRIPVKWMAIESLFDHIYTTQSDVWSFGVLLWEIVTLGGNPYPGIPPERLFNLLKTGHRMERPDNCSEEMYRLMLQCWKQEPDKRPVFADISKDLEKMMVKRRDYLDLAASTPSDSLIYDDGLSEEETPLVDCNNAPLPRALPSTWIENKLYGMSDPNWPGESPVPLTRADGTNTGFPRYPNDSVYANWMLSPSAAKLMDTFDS", "details": "read-out: % control", "description": "as §1, §2"}, "ACVR2A": {"target": "T1, ACVR2A (Homo sapiens, UniProt P27037)", "T1 construct": "purchased KinomeScan®", "details": "read-out: % control", "description": "as §1, §2"}, "TRPM6": {"target": "TRPM6 (Homo sapiens, UniProt Q9BX84)", "sequence (Q9BX84 whole entry)": "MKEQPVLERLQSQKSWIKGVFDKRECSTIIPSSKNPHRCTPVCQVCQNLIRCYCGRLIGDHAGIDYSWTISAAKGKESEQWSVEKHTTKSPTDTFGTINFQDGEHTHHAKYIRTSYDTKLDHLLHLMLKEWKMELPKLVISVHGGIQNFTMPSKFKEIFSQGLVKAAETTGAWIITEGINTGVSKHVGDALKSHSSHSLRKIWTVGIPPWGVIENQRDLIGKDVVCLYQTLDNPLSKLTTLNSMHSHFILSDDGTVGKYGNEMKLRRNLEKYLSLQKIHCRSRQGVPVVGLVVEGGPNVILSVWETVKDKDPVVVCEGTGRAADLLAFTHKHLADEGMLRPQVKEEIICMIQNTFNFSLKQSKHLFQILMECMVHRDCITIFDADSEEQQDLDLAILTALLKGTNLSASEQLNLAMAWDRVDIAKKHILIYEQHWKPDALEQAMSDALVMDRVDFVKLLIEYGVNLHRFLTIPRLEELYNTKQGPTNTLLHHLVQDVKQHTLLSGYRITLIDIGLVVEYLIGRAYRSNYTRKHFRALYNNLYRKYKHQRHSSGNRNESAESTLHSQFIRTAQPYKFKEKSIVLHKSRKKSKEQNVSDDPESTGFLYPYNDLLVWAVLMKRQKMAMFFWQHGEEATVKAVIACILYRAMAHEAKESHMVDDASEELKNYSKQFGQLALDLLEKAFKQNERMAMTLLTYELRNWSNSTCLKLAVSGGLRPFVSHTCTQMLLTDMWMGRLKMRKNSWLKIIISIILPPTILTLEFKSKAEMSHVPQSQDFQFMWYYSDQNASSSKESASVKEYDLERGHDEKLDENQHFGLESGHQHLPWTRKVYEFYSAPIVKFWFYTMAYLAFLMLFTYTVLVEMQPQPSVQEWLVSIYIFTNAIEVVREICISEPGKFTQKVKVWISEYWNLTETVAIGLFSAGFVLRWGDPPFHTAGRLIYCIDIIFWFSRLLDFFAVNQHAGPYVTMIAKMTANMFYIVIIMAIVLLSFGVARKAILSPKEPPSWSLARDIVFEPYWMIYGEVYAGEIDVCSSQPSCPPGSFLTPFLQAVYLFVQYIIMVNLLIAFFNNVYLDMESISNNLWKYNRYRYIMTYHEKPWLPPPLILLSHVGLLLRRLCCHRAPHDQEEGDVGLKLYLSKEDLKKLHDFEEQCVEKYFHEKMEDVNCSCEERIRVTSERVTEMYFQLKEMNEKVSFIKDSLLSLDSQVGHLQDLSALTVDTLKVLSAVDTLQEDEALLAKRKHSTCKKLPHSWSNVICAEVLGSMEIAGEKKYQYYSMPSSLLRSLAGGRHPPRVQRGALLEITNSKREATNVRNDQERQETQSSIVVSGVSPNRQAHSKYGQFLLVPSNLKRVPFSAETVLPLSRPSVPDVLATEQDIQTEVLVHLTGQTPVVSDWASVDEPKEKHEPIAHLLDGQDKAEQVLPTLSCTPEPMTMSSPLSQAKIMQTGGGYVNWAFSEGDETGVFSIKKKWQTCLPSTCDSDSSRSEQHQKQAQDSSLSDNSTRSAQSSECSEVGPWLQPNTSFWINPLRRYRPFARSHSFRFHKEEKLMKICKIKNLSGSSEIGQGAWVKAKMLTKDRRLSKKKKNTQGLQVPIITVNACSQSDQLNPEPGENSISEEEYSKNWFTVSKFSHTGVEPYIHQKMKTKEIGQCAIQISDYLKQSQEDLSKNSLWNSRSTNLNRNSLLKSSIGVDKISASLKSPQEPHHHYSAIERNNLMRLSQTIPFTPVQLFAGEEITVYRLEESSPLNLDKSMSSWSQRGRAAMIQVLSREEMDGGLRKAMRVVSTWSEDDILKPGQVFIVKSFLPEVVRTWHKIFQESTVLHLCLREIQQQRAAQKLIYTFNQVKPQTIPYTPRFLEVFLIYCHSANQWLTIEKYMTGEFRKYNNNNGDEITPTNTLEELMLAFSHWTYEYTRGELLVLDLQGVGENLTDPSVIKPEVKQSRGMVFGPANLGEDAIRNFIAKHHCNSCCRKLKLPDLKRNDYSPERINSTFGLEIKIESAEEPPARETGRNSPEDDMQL", "details": "TRPM6, 1 μM; read-out: % control", "description": "as §1, §2"}, "EPHA1": {"target": "T2, EPHA1 (Homo sapiens, UniProt P21709)", "T2 sequence (P21709 26-976)": "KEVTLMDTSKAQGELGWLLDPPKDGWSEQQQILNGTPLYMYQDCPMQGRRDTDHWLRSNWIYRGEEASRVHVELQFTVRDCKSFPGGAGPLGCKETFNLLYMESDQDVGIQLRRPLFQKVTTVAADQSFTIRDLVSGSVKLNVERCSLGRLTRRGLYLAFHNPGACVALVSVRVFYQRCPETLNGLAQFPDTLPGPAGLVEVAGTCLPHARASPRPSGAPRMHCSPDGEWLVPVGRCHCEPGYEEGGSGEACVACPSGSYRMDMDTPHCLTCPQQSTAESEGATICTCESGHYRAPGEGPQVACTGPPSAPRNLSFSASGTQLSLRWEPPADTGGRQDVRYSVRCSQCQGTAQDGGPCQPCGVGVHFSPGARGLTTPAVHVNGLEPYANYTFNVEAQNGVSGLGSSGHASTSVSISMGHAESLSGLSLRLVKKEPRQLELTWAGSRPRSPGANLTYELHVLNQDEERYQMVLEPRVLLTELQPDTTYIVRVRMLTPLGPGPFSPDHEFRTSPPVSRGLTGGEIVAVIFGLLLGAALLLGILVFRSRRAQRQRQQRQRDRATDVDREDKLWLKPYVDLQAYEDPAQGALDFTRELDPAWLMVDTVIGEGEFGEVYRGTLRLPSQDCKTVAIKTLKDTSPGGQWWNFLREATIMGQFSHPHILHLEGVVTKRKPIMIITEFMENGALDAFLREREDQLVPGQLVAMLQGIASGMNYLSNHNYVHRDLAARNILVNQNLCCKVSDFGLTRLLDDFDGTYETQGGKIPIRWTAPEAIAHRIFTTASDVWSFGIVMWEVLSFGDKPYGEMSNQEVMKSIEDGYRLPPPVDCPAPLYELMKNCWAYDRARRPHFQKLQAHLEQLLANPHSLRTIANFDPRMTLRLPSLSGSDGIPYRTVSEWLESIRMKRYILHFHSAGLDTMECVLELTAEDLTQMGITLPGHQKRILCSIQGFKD", "details": "EPHA1, 1 μM; read-out: % control", "description": "as §1, §2"}, "MEK2": {"target": "MEK2 (Homo sapiens, UniProt P36507)", "sequence (P36507 whole entry)": "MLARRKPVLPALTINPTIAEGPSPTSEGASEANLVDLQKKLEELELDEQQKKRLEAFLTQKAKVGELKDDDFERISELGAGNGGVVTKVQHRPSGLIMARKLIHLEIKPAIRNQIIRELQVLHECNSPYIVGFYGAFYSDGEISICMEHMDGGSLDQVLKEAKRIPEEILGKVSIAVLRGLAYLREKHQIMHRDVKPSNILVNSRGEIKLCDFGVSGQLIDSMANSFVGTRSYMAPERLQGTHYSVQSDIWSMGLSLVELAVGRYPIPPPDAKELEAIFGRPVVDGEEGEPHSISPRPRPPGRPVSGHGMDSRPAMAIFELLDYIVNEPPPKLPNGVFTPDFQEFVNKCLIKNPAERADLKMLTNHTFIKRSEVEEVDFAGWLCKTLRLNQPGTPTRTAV", "details": "MEK2, 1 μM; read-out: % control", "description": "as §1, §2"}, "[1]": {"target": "T3, TYK2(JH1domain-catalytic) (Homo sapiens, UniProt P29597)", "T3 construct": "tyrosine kinase 2 (TYK2)(JH1domain-catalytic)", "T3 sequence (P29597 897-1176 limits assumed)": "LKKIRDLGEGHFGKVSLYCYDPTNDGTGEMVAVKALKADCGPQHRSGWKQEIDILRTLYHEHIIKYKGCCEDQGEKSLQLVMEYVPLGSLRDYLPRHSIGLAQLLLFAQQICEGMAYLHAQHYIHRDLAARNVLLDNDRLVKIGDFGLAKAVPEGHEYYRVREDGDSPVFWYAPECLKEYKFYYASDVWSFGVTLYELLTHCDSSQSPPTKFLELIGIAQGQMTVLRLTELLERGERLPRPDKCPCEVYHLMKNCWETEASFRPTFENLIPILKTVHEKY", "details": "read-out: % control", "description": "as §1, §2"}, "RET(M918T)": {"target": "RET(M918T) (Homo sapiens, UniProt P07949, M918T)", "sequence (P07949 29-1114 M918T)": "as the sequence (P07949 29-1114) above, with M890T counted along it", "details": "read-out: % control", "description": "as §1, §2"}, "TXK": {"target": "T4, TXK (Homo sapiens, UniProt P42681)", "T4 sequence (P42681 1-527)": "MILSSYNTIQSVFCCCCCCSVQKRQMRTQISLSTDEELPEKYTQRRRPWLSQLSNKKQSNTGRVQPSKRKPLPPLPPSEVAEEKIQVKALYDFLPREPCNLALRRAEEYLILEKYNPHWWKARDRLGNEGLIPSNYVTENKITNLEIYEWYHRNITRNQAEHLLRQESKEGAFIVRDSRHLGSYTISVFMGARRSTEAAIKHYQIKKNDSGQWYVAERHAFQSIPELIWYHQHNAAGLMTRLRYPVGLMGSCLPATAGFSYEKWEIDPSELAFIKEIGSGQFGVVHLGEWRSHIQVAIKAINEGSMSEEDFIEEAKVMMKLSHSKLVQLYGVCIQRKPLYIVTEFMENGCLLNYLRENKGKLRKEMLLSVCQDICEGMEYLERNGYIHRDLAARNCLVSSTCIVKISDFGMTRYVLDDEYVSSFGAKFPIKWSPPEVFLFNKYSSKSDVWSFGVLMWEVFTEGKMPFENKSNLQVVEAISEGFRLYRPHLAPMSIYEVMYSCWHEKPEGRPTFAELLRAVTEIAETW", "details": "read-out: % control", "description": "as §1, §2"}},
  "data": [
    {"smiles": "CNc1c(-c2cnn([C@H]3CCN(C(C)=O)C[C@@H]3F)c2)cnc2[nH]cc(Cl)c12", "note": "[Compound 77, 1-((3S,4S)-4-(4-(3-chloro-4-(methylamino)-1H-pyrrolo[2,3-b]pyridin-5-yl)-1H-pyrazol-1-yl)-3-fluoropiperidin-1-yl)ethan-1-one]", "values": [
      {"measurement": "remaining binding at 1 µM", "setting": "BTK", "result": 68, "unit": "%"},
      {"measurement": "remaining binding at 1 µM", "setting": "PCTK1", "result": 85, "unit": "%"},
      {"measurement": "remaining binding at 1 µM", "setting": "RET", "result": 27, "unit": "%"},
      {"measurement": "remaining binding at 1 µM", "setting": "ACVR2A", "result": 99, "unit": "%"},
      {"measurement": "remaining binding at 1 µM", "setting": "TRPM6", "result": 89, "unit": "%"},
      {"measurement": "remaining binding at 1 µM", "setting": "EPHA1", "result": 83, "unit": "%"},
      {"measurement": "remaining binding at 1 µM", "setting": "MEK2", "result": 31, "unit": "%"},
      {"measurement": "remaining binding at 1 µM", "setting": "[1]", "result": 15, "unit": "%"},
      {"measurement": "remaining binding at 1 µM", "setting": "RET(M918T)", "result": 33, "unit": "%"},
      {"measurement": "remaining binding at 1 µM", "setting": "TXK", "result": 81, "unit": "%"}
    ]},
    {"smiles": "O=C(c1ccc(-c2cnc3[nH]cc(Cl)c3c2NC2CCCC2)cc1)N1CCC(N2CCOCC2)CC1", "note": "[Compound 101, (4-(3-chloro-4-(cyclopentylamino)-1H-pyrrolo[2,3-b]pyridin-5-yl)phenyl)(4-morpholinopiperidin-1-yl)methanone]", "values": [
      {"measurement": "remaining binding at 1 µM", "setting": "BTK", "result": 100, "unit": "%"},
      {"measurement": "remaining binding at 1 µM", "setting": "PCTK1", "result": 100, "unit": "%"},
      {"measurement": "remaining binding at 1 µM", "setting": "RET", "result": 85, "unit": "%"},
      {"measurement": "remaining binding at 1 µM", "setting": "ACVR2A", "result": 95, "unit": "%"},
      {"measurement": "remaining binding at 1 µM", "setting": "TRPM6", "result": 100, "unit": "%"},
      {"measurement": "remaining binding at 1 µM", "setting": "EPHA1", "result": 76, "unit": "%"},
      {"measurement": "remaining binding at 1 µM", "setting": "MEK2", "result": 87, "unit": "%"},
      {"measurement": "remaining binding at 1 µM", "setting": "[1]", "result": 100, "unit": "%"},
      {"measurement": "remaining binding at 1 µM", "setting": "RET(M918T)", "result": 95, "unit": "%"},
      {"measurement": "remaining binding at 1 µM", "setting": "TXK", "result": 84, "unit": "%"}
    ]},
    {"smiles": "CNc1c(-c2ccc(C(=O)N3CCC(N4CCOCC4)CC3)cc2)cnc2[nH]cc(Cl)c12", "note": "[Compound 96, (4-(3-chloro-4-(methylamino)-1H-pyrrolo[2,3-b]pyridin-5-yl)phenyl)(4-morpholinopiperidin-1-yl)methanone]", "values": [
      {"measurement": "remaining binding at 1 µM", "setting": "BTK", "result": 78, "unit": "%"},
      {"measurement": "remaining binding at 1 µM", "setting": "PCTK1", "result": 86, "unit": "%"},
      {"measurement": "remaining binding at 1 µM", "setting": "RET", "result": 80, "unit": "%"},
      {"measurement": "remaining binding at 1 µM", "setting": "ACVR2A", "result": 97, "unit": "%"},
      {"measurement": "remaining binding at 1 µM", "setting": "TRPM6", "result": 82, "unit": "%"},
      {"measurement": "remaining binding at 1 µM", "setting": "EPHA1", "result": 81, "unit": "%"},
      {"measurement": "remaining binding at 1 µM", "setting": "MEK2", "result": 19, "unit": "%"},
      {"measurement": "remaining binding at 1 µM", "setting": "[1]", "result": 29, "unit": "%"},
      {"measurement": "remaining binding at 1 µM", "setting": "RET(M918T)", "result": 72, "unit": "%"},
      {"measurement": "remaining binding at 1 µM", "setting": "TXK", "result": 81, "unit": "%"}
    ]}
  ]
}
